ChEMBL document CHEMBL4765274, “The development of advanced structural framework as multi-target-directed ligands for the treatment of Alzheimer's disease” (Eur J Med Chem, 2020)
Calls of active or inactive are those of the source. The calls are words filed in the database; no cut-off is given here.

Key:
HT-22 [1] = assay: Activation of ubiquitin-proteasome system in mouse HT-22 cells expressing pRK5-GFP-Tau P301L mutant assessed as increase in tau degradation by measuring reduction in GFP level at 2.5 to 20 uM after 24 hrs by flow cytometric analysis; assay type: cell-based; conditions: filed as activator, dose 2.5-20 µM
Danio rerio [2] = species: Danio rerio; assay: Antialzheimer activity in Alcl3-induced zebra fish AD model assessed as increase in motility at 0.26 ug/ml relative to control; assay type: functional; conditions: dose 0.26 µg/ml
Acetylcholinesterase = Acetylcholinesterase (Homo sapiens, UniProt P22303); assay: Reversible inhibition of human AChE assessed as residual activity at 0.1 times of IC50 concentration after 120 mins relative to control
Chain of Acetylcholinesterase (P22303 whole entry): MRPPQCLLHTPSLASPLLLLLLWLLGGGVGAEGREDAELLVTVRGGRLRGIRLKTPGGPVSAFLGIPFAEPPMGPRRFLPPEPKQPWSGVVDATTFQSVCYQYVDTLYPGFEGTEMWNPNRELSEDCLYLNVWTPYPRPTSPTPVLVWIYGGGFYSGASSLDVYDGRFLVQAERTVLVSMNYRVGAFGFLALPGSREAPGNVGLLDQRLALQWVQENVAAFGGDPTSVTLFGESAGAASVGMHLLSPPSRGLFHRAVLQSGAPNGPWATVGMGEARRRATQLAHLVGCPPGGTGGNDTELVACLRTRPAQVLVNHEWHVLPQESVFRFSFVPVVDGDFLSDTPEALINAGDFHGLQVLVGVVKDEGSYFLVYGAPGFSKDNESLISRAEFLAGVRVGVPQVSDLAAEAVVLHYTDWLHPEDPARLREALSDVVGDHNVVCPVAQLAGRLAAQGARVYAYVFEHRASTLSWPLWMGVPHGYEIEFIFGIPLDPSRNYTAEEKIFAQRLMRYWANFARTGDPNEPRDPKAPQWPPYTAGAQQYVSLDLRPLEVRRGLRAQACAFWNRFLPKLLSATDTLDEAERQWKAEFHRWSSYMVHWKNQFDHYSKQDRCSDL

[3] = Toxicity in 2 dpf zebra fish assessed as dark brown liver at 25 ug/ml after 3 days relative to control; design: species or system Danio rerio; conditions: zebrafish, 72 h, at 25 µg/mL, time 3 day
HT-22 [4] = assay: Activation of ubiquitin-proteasome system in mouse HT-22 cells expressing pEGFP-N1-APP assessed as increase in APP degradation by measuring reduction in GFP level at 2.5 to 20 uM after 24 hrs by Western blot analysis; assay type: cell-based; conditions: filed as activator, dose 2.5-20 µM
Danio rerio [5] = species: Danio rerio; assay: Antialzheimer activity in Alcl3-induced zebra fish AD model assessed as increase dyskinesia recovery rate at 0.09 ug/ml relative to control; assay type: functional; conditions: dose 0.09 µg/ml
[6] = Disaggregation of Cu2+ induced amyloid beta (1 to 42 residues) (unknown origin) aggregation at 25 uM by thioflavin-T fluorescence method relative to control
PC-12 = assay: Neuroprotective activity against H2O2-induced cytotoxicity in rat PC-12 cells assessed as increase in cell viability preincubated for 2 hrs followed by H2O2 addition and measured after 24 hrs by MTT assay; assay type: functional, cell-based; conditions: dose 1-10 µM, time 26.0 hrs
[7] = Disaggregation of Cu2+ induced amyloid beta (unknown origin) aggregation after 48 hrs by TEM analysis
[8] = Metal chelating activity assessed as Al3+-compound complex formation in methanol at 37.5 uM by UV-Visible spectra analysis
[9] = Toxicity in 2 dpf zebra fish assessed as absent blood flow at 8.33 ug/ml after 3 days relative to control; assay type: tissue-based, Danio rerio; conditions: zebrafish, 72 h, at 8.33 µg/mL, time 3 day
[10] = Toxicity in 2 dpf zebra fish assessed as small brain at 25 ug/ml after 3 days relative to control; assay type: tissue-based, Danio rerio; conditions: zebrafish, 72 h, at 25 µg/mL, time 3 day
HT-22 [11] = assay: Activation of ubiquitin-proteasome system in mouse HT-22 cells expressing pEGFP-N1-APP assessed as increase in APP degradation by measuring reduction in GFP level at 2.5 to 20 uM after 24 hrs by flow cytometric analysis; assay type: cell-based; conditions: filed as activator, dose 2.5-20 µM
Cholinesterase = Cholinesterase (Homo sapiens, UniProt P06276); assay: Reversible inhibition of human BChE assessed as residual activity at 0.1 times of IC50 concentration relative to control
Chain of Cholinesterase (P06276 whole entry): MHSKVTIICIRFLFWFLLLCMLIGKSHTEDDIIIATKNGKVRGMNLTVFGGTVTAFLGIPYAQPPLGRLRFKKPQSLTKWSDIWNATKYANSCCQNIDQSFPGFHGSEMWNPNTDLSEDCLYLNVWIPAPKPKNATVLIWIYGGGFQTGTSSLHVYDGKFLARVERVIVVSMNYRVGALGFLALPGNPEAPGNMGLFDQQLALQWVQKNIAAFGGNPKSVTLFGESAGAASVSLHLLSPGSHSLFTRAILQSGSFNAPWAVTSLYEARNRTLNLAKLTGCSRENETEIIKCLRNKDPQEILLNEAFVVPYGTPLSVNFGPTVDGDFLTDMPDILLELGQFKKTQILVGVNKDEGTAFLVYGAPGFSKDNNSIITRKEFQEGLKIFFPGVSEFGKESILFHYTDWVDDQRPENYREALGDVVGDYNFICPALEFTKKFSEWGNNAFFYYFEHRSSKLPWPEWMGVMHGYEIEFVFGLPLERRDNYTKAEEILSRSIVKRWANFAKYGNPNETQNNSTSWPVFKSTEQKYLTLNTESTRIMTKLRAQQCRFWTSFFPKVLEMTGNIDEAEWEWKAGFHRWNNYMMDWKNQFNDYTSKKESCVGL

[12] = Metal chelating activity assessed as Cu2+-compound complex formation in methanol at 37.5 uM by UV-Visible spectra analysis
[13] = Toxicity in 3 dpf zebra fish assessed as pericardium edema at 1.56 ug/ml; design: species or system Danio rerio; conditions: zebrafish; dose 1.56 µg/ml
[14] = Drug metabolism in mouse urine assessed as metabolite formation by UPLC-TOF analysis; assay type: ADME
Danio rerio [15] = species: Danio rerio; assay: Antialzheimer activity in Alcl3-induced zebra fish AD model assessed as increase dyskinesia recovery rate at 0.26 ug/ml relative to control; assay type: functional; conditions: dose 0.26 µg/ml
[16] = Toxicity in 2 dpf zebra fish assessed as yolk sac absorption delay at 25 ug/ml after 3 days relative to control; design: species or system Danio rerio; conditions: zebrafish, 72 h, at 25 µg/mL, time 3 day
[17] = Selectivity index, ratio of IC50 for inhibition of equine serum BChE to IC50 for inhibition of electric eel AChE
[18] = Metal chelating activity assessed as Zn2+-compound complex formation in water at 37.5 uM by UV-Visible spectra analysis
[19] = Toxicity in 3 dpf zebra fish assessed as blood flow retardation at 1.56 ug/ml; assay type: tissue-based, Danio rerio; conditions: zebrafish, dose 1.56 µg/ml
HT-22 [20] = assay: Activation of ubiquitin-proteasome system in mouse HT-22 cells expressing pRK5-GFP-Tau assessed as increase in tau degradation by measuring reduction in GFP level after 24 hrs by fluorescence microscopic method; assay type: cell-based; conditions: filed as activator, dose 2.5-20 µM
HT-22 [21] = assay: Activation of ubiquitin-proteasome system in mouse HT-22 cells expressing pRK5-GFP-Tau P301L mutant assessed as increase in tau degradation by measuring reduction in GFP level at 2.5 to 20 uM after 24 hrs by Western blot analysis; assay type: cell-based; conditions: filed as activator, dose 2.5-20 µM
[22] = Toxicity in 3 dpf zebra fish assessed as mortality at 12.5 ug/ml (reference value: 0%); design: species or system Danio rerio; conditions: zebrafish, at 12.5 µg/mL, read-out: Activity
HT-22 [23] = assay: Activation of ubiquitin-proteasome system in mouse HT-22 cells expressing pRK5-GFP-Tau assessed as increase in tau degradation by measuring reduction in GFP level at 2.5 to 20 uM after 24 hrs by Western blot analysis; assay type: cell-based; conditions: filed as activator, dose 2.5-20 µM

## CCN(CCCCOc1ccc(-c2cc(=O)c3c(O)cc(OCCCCN(CC)Cc4ccccc4)cc3o2)cc1)Cc1ccccc1
HT-22 [1]
  Activity: Active
Danio rerio [2]
  Activity: 81%
Acetylcholinesterase
  Activity: 86.6%
[3]
  Activity: 100%
HT-22 [4]
  Activity: Active
Danio rerio [5]
  Activity: 67%
[6]
  Activity: 81.3%
PC-12
  Activity: Dose-dependent effect
[7]
  Activity: Active
[8]
  Activity: Active
[9]
  Activity: 33.3%
[10]
  Activity: 50%
HT-22 [11]
  Activity: Active
Cholinesterase
  Activity: 50%
[12]
  Activity: Active
[13]
  Activity: Toxic
[14]
  Drug metabolism: Metabolite_Detected
Danio rerio [15]
  Activity: 80%
[16]
  Activity: 100%
[17]
  Ratio IC50: 2.6
[18]
  Activity: inactive
[19]
  Activity: Toxic
HT-22 [20]
  Activity: Dose-dependent effect
HT-22 [21]
  Activity: Active
[22]
  mortality at 12.5 ug/ml: 100%
HT-22 [23]
  Activity: Active
